Experimental data as given in patent US20240286998A1, “F[…], ANALOGUES THEREOF, AND METHODS USING SAME” (Saint Joseph's University, priority 2021, published 2024).
pEC50, pKi: −log10 of the molar value. Where two headings read alike, the source gives them in different places.

How the values were obtained:
5-HT2B = 5-HT2B (Homo sapiens (Human), UniProt P41595); test: 5-HT2B Gq-mediated calcium flux functional assay; assay type: cell-based
5-HT2A = 5-HT2A (Homo sapiens (Human), UniProt P28223); test: 5-HT2A Gq-mediated calcium flux functional assay; assay type: cell-based
5-HT2C = 5-HT2C (Homo sapiens (Human), UniProt P28335); test: 5-HT2C Gq-mediated calcium flux functional assay; assay type: cell-based
Chain of 5-HT2C (P28335 whole entry, looked up): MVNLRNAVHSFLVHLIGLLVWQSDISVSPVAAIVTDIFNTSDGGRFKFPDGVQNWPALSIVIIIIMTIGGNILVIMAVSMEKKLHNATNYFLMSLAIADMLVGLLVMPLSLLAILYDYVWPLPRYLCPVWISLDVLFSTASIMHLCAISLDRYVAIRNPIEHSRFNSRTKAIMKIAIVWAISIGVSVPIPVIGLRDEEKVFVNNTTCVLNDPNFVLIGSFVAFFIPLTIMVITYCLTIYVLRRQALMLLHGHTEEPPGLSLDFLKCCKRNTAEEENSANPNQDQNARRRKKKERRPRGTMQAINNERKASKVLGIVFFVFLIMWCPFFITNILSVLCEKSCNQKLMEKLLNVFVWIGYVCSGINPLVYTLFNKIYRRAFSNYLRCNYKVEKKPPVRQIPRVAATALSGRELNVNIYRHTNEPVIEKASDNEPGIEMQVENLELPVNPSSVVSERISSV

Serotonin 5-HT2A (human) = Serotonin 5-HT2A (human) (Homo sapiens (Human), UniProt P28223); test: 5-HT2A receptor binding, [3H]-ketanserin competition in membrane fractions; details: for 5-HT2A pKi ± SEM: 1 nM [3H]-ketanserin, Cheng-Prusoff, N=1-3
5-HT1A = 5-HT1A (Homo sapiens (Human), UniProt P08908); test: 5-HT1A Gi/o-mediated cAMP inhibition, GloSensor assay; assay type: cell-based; details: for 5-HT1A-cAMP Emax (% 5-HT): cAMP inhibition, 0.2 μM isoproterenol, IA = Inactive

Chain of 5-HT2B (P41595 whole entry): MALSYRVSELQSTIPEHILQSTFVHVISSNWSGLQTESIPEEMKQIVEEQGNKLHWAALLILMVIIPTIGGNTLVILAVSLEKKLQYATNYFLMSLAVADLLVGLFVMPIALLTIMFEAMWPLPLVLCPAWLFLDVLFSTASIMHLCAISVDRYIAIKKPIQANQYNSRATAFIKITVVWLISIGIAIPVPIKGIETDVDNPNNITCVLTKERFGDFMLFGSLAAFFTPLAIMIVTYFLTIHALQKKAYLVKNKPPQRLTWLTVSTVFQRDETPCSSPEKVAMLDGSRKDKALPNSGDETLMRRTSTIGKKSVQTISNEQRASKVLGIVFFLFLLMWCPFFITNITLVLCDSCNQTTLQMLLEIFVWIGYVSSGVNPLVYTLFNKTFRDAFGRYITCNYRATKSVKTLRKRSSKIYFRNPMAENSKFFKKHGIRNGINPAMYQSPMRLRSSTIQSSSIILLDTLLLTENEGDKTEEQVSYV

| SMILES | pEC50 (5-HT2B) | 5-HT2B-Ca2+ FLUX Emax (% 5-HT) (5-HT2B; IA = Inactive, N=1-3) | pEC50 (5-HT2A) | 5-HT2A-Ca2+ FLUX Emax (% 5-HT) (5-HT2A; IA = Inactive, N=1-3) | pEC50 (5-HT2C) | 5-HT2C-Ca2+ FLUX Emax (% 5-HT) (5-HT2C; IA = Inactive, N=1-3) | pKi (Serotonin 5-HT2A (human)) | pEC50 (5-HT1A) | 5-HT1A-cAMP Emax (% 5-HT) (5-HT1A) | EC50 (5-HT2B; IA = Inactive, N=1-3, read-out: 5-HT2B-Ca2+ FLUX pEC50 (converted)) | EC50 (5-HT2A; IA = Inactive, N=1-3, read-out: 5-HT2A-Ca2+ FLUX pEC50 (converted)) | EC50 (5-HT2C; IA = Inactive, N=1-3, read-out: 5-HT2C-Ca2+ FLUX pEC50 (converted)) | 5-HT2A pKi ± SEM (Serotonin 5-HT2A (human)) |
| --- | --- | --- | --- | --- | --- | --- | --- | --- | --- | --- | --- | --- | --- |
| C=CCN(CCc1c[nH]c2ccc(F)cc12)C(C)CC (stereo not shown) [compound 16, N-allyl-N-(2-(5-fluoro-1H-indol-3-yl)ethyl)butan-2-amine] | 8.68 | 97.4 ± 1.7 % 5-HT | 9.06 | 103.4 ± 1.8 % 5-HT | 7.31 | 84.3 ± 3.4 % 5-HT | 5.78 | 6.78 | 94.2 ± 2.2 % 5-HT | – | – | – | – |
| CN(CCc1c[nH]c2ccc(F)cc12)C1CSC1 [compound 20, N-(2-(5-fluoro-1H-indol-3-yl)ethyl)-N-methylthietan-3-amine] | – | 17.3 ± 1.1 % 5-HT | – | 61.8 ± 3.2 % 5-HT | – | 55.0 ± 2.8 % 5-HT | – | 6.10 | 93.1 ± 2.5 % 5-HT | 2.4 nM | 28.8 nM | 468 nM | – |
| CCC(C)N(CC)CCc1c[nH]c2ccc(F)cc12 (stereo not shown) [compound 30, N-ethyl-N-(2-(5-fluoro-1H-indol-3-yl)ethyl)butan-2-amine] | 8.46 | 83.8 ± 2.1 % 5-HT | 8.61 | 93.2 ± 1.7 % 5-HT | 6.83 | 72.2 ± 2.9 % 5-HT | – | 6.33 | 104.0 ± 3.1 % 5-HT | – | – | – | 5.70 ± 0.39 |
| CCC(C)N(CCc1c[nH]c2ccc(F)cc12)C(C)C (stereo not shown) [compound 32, N-(2-(5-fluoro-1H-indol-3-yl)ethyl)-N-isopropylbutan-2-amine] | 9.02 | 108.0 ± 1.8 % 5-HT | 8.95 | 106.8 ± 1.7 % 5-HT | 7.19 | 101.5 ± 2.7 % 5-HT | – | 5.90 | 88.5 ± 2.8 % 5-HT | – | – | – | 5.86 ± 0.16 |
| C=CCN(CC)CCc1c[nH]c2ccc(F)cc12 [compound 36, N-ethyl-N-(2-(5-fluoro-1H-indol-3-yl)ethyl)prop-2-en-1-amine] | 8.76 | 104.5 ± 2.0 % 5-HT | 8.92 | 104.8 ± 2.0 % 5-HT | 7.77 | 101.5 ± 1.9 % 5-HT | – | 7.25 | 98.4 ± 1.5 % 5-HT | – | – | – | 6.13 ± 0.08 |
| CC(C)N(CCc1c[nH]c2ccc(F)cc12)C1CCC1 [compound 40, N-(2-(5-fluoro-1H-indol-3-yl)ethyl)-N-isopropylcyclobutanamine] | 8.96 | 106.7 ± 1.5 % 5-HT | 9.05 | 102.5 ± 2.0 % 5-HT | 6.95 | 94.9 ± 2.0 % 5-HT | – | 7.18 | 102.1 ± 1.7 % 5-HT | – | – | – | 6.06 ± 0.05 |
| CCN(C)CCc1c[nH]c2cc(F)c(Cl)cc12 [compound 179, 2-(5-chloro-6-fluoro-1H-indol-3-yl)-N-ethyl-N-methylethan-1-amine] | 7.97 | 67.8 ± 0.6 % 5-HT | 7.97 | 79.3 ± 0.7 % 5-HT | 7.64 | 95.5 ± 1.0 % 5-HT | – | – | – | – | – | – | 6.93 |
| C#CCN(CCC)CCc1c[nH]c2c(F)cccc12 [compound 180, N-(2-(7-fluoro-1H-indol-3-yl)ethyl)-N-propylprop-2-yn-1-amine] | 7.42 | 92.7 ± 1.2 % 5-HT | 7.10 | 80.7 ± 1.6 % 5-HT | 6.20 | 56.5 ± 2.1 % 5-HT | – | – | – | – | – | – | 5.75 |
